Laboratory results reported in article PMC2955773 (ACS chemical biology, 2010).

Assays:
Type in all cases: cell-based
Nox3 = target: T1, Nox3 (Homo sapiens, UniProt Q9HBY0); experiment: HEK293-Nox3 selectivity assay
T1 sequence (Q9HBY0 1-568): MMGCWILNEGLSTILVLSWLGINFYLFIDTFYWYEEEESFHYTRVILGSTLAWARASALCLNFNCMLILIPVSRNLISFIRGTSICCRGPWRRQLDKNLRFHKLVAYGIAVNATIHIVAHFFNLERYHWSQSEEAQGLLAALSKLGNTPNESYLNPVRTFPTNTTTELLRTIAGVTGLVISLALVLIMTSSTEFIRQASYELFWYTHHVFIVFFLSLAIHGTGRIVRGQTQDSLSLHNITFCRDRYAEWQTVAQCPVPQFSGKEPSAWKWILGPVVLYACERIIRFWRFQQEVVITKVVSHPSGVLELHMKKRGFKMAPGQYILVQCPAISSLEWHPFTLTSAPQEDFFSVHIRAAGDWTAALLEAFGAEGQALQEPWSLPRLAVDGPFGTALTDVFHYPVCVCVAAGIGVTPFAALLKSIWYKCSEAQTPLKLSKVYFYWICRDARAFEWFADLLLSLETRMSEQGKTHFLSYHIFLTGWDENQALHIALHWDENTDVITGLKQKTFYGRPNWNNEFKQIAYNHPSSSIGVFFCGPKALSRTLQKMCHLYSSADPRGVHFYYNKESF
T1 sequence (P13498 2-195 partner limits assumed): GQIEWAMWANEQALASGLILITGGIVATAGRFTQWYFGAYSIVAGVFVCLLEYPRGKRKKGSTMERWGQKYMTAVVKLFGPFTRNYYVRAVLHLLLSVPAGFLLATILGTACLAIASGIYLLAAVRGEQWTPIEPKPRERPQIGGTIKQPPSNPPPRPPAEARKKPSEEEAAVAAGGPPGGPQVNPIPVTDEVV

Nox4 = target: T2, Nox4 (Homo sapiens, UniProt Q9NPH5); experiment: HEK293-Nox4 selectivity assay
T2 sequence (Q9NPH5 1-578): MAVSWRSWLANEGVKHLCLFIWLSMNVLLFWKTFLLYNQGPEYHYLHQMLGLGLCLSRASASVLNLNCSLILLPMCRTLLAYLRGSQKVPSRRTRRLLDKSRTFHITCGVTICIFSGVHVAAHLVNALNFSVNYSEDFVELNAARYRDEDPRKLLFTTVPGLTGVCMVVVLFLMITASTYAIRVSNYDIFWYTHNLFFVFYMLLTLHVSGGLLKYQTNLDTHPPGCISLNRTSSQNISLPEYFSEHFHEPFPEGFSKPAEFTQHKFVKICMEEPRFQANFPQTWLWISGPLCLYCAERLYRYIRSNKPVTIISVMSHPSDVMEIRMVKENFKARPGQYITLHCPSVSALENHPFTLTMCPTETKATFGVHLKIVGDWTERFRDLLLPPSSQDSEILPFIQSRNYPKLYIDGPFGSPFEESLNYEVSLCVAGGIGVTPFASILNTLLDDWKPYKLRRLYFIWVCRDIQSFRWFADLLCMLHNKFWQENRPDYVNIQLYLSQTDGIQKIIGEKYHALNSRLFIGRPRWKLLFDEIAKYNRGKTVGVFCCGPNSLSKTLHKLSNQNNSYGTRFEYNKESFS
T2 sequence (P13498 2-195 partner limits assumed): T1 sequence (P13498 2-195 partner limits assumed)

HT29 cells = experiment: CellTiter Glo toxicity assay; settings: 10 μM in HT29 cells
Nox2 = target: T3, Nox2 (Homo sapiens, UniProt P04839); experiment: HEK293-Nox2 selectivity assay
T3 sequence (P04839 2-570 limits assumed): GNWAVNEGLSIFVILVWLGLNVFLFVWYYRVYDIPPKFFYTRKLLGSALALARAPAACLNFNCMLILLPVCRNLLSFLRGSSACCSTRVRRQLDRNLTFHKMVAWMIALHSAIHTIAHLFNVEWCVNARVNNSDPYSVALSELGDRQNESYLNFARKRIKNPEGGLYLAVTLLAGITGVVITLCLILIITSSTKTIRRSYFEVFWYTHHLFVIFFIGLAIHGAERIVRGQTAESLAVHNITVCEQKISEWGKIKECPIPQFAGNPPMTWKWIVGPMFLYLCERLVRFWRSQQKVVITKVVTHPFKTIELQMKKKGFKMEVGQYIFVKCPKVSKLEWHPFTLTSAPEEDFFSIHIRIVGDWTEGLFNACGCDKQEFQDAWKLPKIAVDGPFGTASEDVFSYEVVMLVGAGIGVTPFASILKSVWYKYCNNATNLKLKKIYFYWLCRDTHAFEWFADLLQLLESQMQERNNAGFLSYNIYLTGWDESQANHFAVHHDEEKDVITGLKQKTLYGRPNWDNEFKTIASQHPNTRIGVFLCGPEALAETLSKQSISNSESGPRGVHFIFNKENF
T3 sequence (P13498 2-195 partner limits assumed): T1 sequence (P13498 2-195 partner limits assumed)

FC(F)(F)c1ccc2c(c1)Nc1ccccc1S2
activity on other Nox isoforms (Nox3): only a marginal activity | activity on other Nox isoforms (Nox4): only a marginal activity | cell death (HT29 cells): did not cause cell death | activity on other Nox isoforms (Nox2): only a marginal activity
